The assay addresses T1, human GLP-1 receptor (Homo sapiens, UniProt P43220).
T1 construct: expressed in transfected cells; host or cells: BHK cells, clone BHK-467-12A; plasma membrane preparation
The experiment in a line: Functional receptor assay: cAMP formation in plasma membranes of BHK cells expressing the cloned human GLP-1 receptor (GLP1cAMPma). The class given is biochemical. As to the method: The term “insulinotropic agent” as used herein means a compound which is an agonist of the human GLP-1 receptor, i.e. a compound which stimulates the formation of cAMP in a suitable medium containing the human GLP-1 receptor (one such medium disclosed below). The potency of an insulinotropic agent is determined by calculating the EC50 value from the dose-response curve as described below.
The cells were washed twice in phosphate buffered saline and harvested with Versene. Plasma membranes were prepared from the cells by homogenisation with an Ultraturrax in buffer 1 (20 mM HEPES-Na, 10 mM EDTA, pH 7.4). The homogenate was centrifuged at 48,000×g for 15 min at 4° C. The pellet was suspended by homogenization in buffer 2 (20 mM HEPES-Na, 0.1 mM EDTA, pH 7.4), then centrifuged at 48,000×g for 15 min at 4° C. The washing procedure was repeated one more time. The final pellet was suspended in buffer 2 and used immediately for assays or stored at −80° C.
The functional receptor assay was carried out by measuring cyclic AMP (cAMP) as a response to stimulation by the insulinotropic agent. cAMP formed was quantified by the AlphaScreen™ cAMP Kit (Perkin Elmer Life Sciences). Incubations were carried out in half-area 96-well microtiter plates in a total volume of 50 μL buffer 3 (50 mM Tris-HCl, 5 mM HEPES, 10 mM MgCl2, pH 7.4) and with the following additions: 1 mM ATP, 1 μM GTP, 0.5 mM 3-isobutyl-1-methylxanthine (IBMX), 0.01% Tween-20, 0.1% BSA, 6 μg membrane preparation, 15 μg/mL acceptor beads, 20 μg/mL donor beads preincubated with 6 nM biotinyl-cAMP. […] GTP was freshly prepared for each experiment. The plate was incubated in the dark with slow agitation for three hours at room temperature followed by counting in the Fusion™ instrument (Perkin Elmer Life Sciences). Concentration-response curves were plotted for the individual compounds and EC50 values estimated using a four-parameter logistic model with Prism v. 4.0 (GraphPad, Carlsbad, Calif.).

Setting [1] is: cAMP, membranes with human GLP-1 receptor, mean value, read-out: GLP1cAMPma (3693) [EC50 (nM)] Mean Value.

Usually EC50 stands for the concentration giving half of the maximal effect.

Molecules are shown by their SMILES. Read-outs that look alike come from different tables or passages of the source. Starred links: 1 amine or outer side, 2 acyl side, 3 side chain; linkers in the order of their positions; H or OH if unused. Residues, ends and D or L forms follow the SMILES beside them. Groups on a side chain read outwards from the residue. *: point of attachment. γGlu = O=C(O)[C@H](CCC(=O)[*:2])N[*:1]; Stearoyl = CCCCCCCCCCCCCCCCCC(=O)*; Palmitoyl = CCCCCCCCCCCCCCCC(=O)*; AEEA = NCCOCCOCC(=O)O

T1 sequence (P43220 24-463): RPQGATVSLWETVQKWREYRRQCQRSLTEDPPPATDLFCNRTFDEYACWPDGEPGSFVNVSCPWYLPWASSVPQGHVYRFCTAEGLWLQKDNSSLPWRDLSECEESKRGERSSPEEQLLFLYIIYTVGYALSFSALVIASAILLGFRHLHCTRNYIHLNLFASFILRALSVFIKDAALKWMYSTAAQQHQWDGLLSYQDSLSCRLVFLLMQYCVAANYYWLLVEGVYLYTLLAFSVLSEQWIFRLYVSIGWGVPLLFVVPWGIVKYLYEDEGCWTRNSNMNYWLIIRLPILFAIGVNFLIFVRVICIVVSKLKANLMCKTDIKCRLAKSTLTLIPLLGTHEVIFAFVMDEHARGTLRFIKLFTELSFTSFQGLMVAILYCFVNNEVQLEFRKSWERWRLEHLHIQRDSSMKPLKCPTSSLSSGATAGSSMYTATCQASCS

Consider `CCCCCCCCCCCCCCCCCC(=O)NCCOCCOCC(=O)NCCOCCOCC(=O)NCCOCCOCC(=O)NCCCC[C@H](NC(=O)[C@@H]1CCCN1C(=O)CNC(=O)CNC(=O)[C@H](CCCNC(=N)N)NC(=O)[C@@H](NC(=O)[C@H](CC(C)C)NC(=O)[C@H](Cc1c[nH]c2ccccc12)NC(=O)[C@H](CCC(=O)O)NC(=O)[C@@H](NC(=O)[C@H](Cc1ccccc1)NC(=O)[C@H](CC(C)C)NC(=O)[C@H](CCCNC(=N)N)NC(=O)[C@@H](NC(=O)[C@H](C)NC(=O)[C@H](CCC(=O)O)NC(=O)[C@H](CCC(=O)O)NC(=O)[C@H](CCC(=O)O)NC(=O)[C@H](CC(C)C)NC(=O)[C@H](CCC(N)=O)NC(=O)[C@H](CCCNC(=N)N)NC(=O)[C@H](CO)NC(=O)[C@H](CC(C)C)NC(=O)[C@H](CC(=O)O)NC(=O)[C@H](CO)NC(=O)[C@@H](NC(=O)[C@H](Cc1ccccc1)NC(=O)[C@@H](NC(=O)CNC(=O)[C@H](CCC(=O)O)NC(=O)CNC(=O)[C@@H](N)Cc1c[nH]cn1)[C@@H](C)O)[C@@H](C)O)C(C)C)[C@@H](C)CC)C(C)C)C(=O)N[C@@H](CO)C(=O)NCC(=O)N[C@@H](C)C(=O)N1CCC[C@H]1C(=O)N1CCC[C@H]1C(=O)N1CCC[C@H]1C(=O)N[C@@H](CO)C(N)=O` [Example 2] (H-HGEGTFTSDLSRQLEEEAVRLFIEWLVRGGPK([AEEA-AEEA-AEEA-Stearoyl])SGAPPPS-NH2), for which a half-maximal effect (EC50) was put at 0.027 nM.

Compound `CCCCCCCCCCCCCCCCCC(=O)NCCOCCOCC(=O)NCCOCCOCC(=O)NCCOCCOCC(=O)NCCCC[C@H](NC(=O)[C@@H](NC(=O)[C@H](CC(C)C)NC(=O)[C@H](Cc1c[nH]c2ccccc12)NC(=O)[C@H](CCC(=O)O)NC(=O)[C@@H](NC(=O)[C@H](Cc1ccccc1)NC(=O)[C@H](CC(C)C)NC(=O)[C@H](CCCNC(=N)N)NC(=O)[C@@H](NC(=O)[C@H](C)NC(=O)[C@H](CCC(=O)O)NC(=O)[C@H](CCC(=O)O)NC(=O)[C@H](CCC(=O)O)NC(=O)[C@H](CC(C)C)NC(=O)[C@H](CCC(N)=O)NC(=O)[C@H](CCCNC(=N)N)NC(=O)[C@H](CO)NC(=O)[C@H](CC(C)C)NC(=O)[C@H](CC(=O)O)NC(=O)[C@H](CO)NC(=O)[C@@H](NC(=O)[C@H](Cc1ccccc1)NC(=O)[C@@H](NC(=O)CNC(=O)[C@H](CCC(=O)O)NC(=O)CNC(=O)[C@@H](N)Cc1c[nH]cn1)[C@@H](C)O)[C@@H](C)O)C(C)C)[C@@H](C)CC)C(C)C)C(=O)NCC(=O)NCC(=O)N1CCC[C@H]1C(=O)N[C@@H](CO)C(=O)N[C@@H](CO)C(=O)NCC(=O)N[C@@H](C)C(=O)N1CCC[C@H]1C(=O)N1CCC[C@H]1C(=O)N1CCC[C@H]1C(=O)N[C@@H](CO)C(N)=O` [Example 3, N-ε^28-(2-(2-(2-(2-(2-(2-(2-(2-(2-(Octadecanoylamino)ethoxy)ethoxy)acetylamino)ethoxy)ethoxy)acetyl-amino)ethoxy)ethoxy)acetyl))[Arg^12,Leu^14,Val^27,Lys^28 Exendin-4(1-39)amide] (H-HGEGTFTSDLSRQLEEEAVRLFIEWLVK([AEEA-AEEA-AEEA-Stearoyl])GGPSSGAPPPS-NH2; N-terminus assumed) showed an EC50 of 0.025 nM.

For `CCCCCCCCCCCCCCCC(=O)N[C@@H](CCC(=O)NCCOCCOCC(=O)NCCOCCOCC(=O)NCCCC[C@H](NC(=O)[C@@H](NC(=O)[C@H](C)NC(=O)[C@H](CCC(=O)O)NC(=O)[C@H](CCC(=O)O)NC(=O)[C@H](CCC(=O)O)NC(=O)[C@H](CC(C)C)NC(=O)[C@H](CCC(N)=O)NC(=O)[C@H](CCCNC(=N)N)NC(=O)[C@H](CO)NC(=O)[C@H](CC(C)C)NC(=O)[C@H](CC(=O)O)NC(=O)[C@H](CO)NC(=O)[C@@H](NC(=O)[C@H](Cc1ccccc1)NC(=O)[C@@H](NC(=O)CNC(=O)[C@H](CCC(=O)O)NC(=O)CNC(=O)[C@@H](N)Cc1c[nH]cn1)[C@@H](C)O)[C@@H](C)O)C(C)C)C(=O)N[C@@H](CC(C)C)C(=O)N[C@@H](Cc1ccccc1)C(=O)N[C@H](C(=O)N[C@@H](CCC(=O)O)C(=O)N[C@@H](Cc1c[nH]c2ccccc12)C(=O)N[C@@H](CC(C)C)C(=O)N[C@@H](CCCNC(=N)N)C(=O)N[C@@H](CCCNC(=N)N)C(=O)NCC(=O)NCC(=O)N1CCC[C@H]1C(=O)N[C@@H](CO)C(=O)N[C@@H](CO)C(=O)NCC(=O)N[C@@H](C)C(=O)N1CCC[C@H]1C(=O)N1CCC[C@H]1C(=O)N1CCC[C@H]1C(=O)N[C@@H](CO)C(N)=O)[C@@H](C)CC)C(=O)O` [Example 4, N-ε^20-[2-(2-[2-(2-[2-(2-[4-hexadecanoylamino-4(S)-carboxybutyrylamino]ethoxy)ethoxy]acetylamino)ethoxy]ethoxy)acetyl] [Arg^12,27,28,Leu^14,Lys^20]Exendin-4(1-39)amide] (H-HGEGTFTSDLSRQLEEEAVK([AEEA-AEEA-γGlu-Palmitoyl])LFIEWLRRGGPSSGAPPPS-NH2; N-terminus assumed), under setting [1], the EC50 turned out to be 0.027 nM.

As for `CCCCCCCCCCCCCCCC(=O)N[C@@H](CCC(=O)NCCOCCOCC(=O)NCCOCCOCC(=O)NCCCC[C@H](NC(=O)[C@H](CO)NC(=O)[C@H](CO)NC(=O)[C@@H]1CCCN1C(=O)CNC(=O)CNC(=O)[C@H](CC(N)=O)NC(=O)[C@H](CCCNC(=N)N)NC(=O)[C@H](CC(C)C)NC(=O)[C@H](Cc1c[nH]c2ccccc12)NC(=O)[C@H](CCC(=O)O)NC(=O)[C@@H](NC(=O)[C@H](Cc1ccccc1)NC(=O)[C@H](CC(C)C)NC(=O)[C@H](CCCNC(=N)N)NC(=O)[C@@H](NC(=O)[C@H](C)NC(=O)[C@H](CCC(=O)O)NC(=O)[C@H](CCC(=O)O)NC(=O)[C@H](CCC(=O)O)NC(=O)[C@H](CC(C)C)NC(=O)[C@H](CCC(N)=O)NC(=O)[C@H](CCCNC(=N)N)NC(=O)[C@H](CO)NC(=O)[C@H](CC(C)C)NC(=O)[C@H](CC(=O)O)NC(=O)[C@H](CO)NC(=O)[C@@H](NC(=O)[C@H](Cc1ccccc1)NC(=O)[C@@H](NC(=O)CNC(=O)[C@H](CCC(=O)O)NC(=O)CNC(=O)[C@@H](N)Cc1c[nH]cn1)[C@@H](C)O)[C@@H](C)O)C(C)C)[C@@H](C)CC)C(=O)N[C@@H](C)C(=O)N1CCC[C@H]1C(=O)N1CCC[C@H]1C(=O)N1CCC[C@H]1C(=O)N[C@@H](CO)C(N)=O)C(=O)O` [Example 6, N-ε^34-[2-(2-[2-(2-[2-(2-[4-hexadecanoylamino-4(S)-carboxybutyrylamino]ethoxy)ethoxy]acetylamino)ethoxy]ethoxy)acetyl] [Arg^12,27,Leu^14,Lys^34]Exendin-4(1-39)amide] (H-HGEGTFTSDLSRQLEEEAVRLFIEWLRNGGPSSK([AEEA-AEEA-γGlu-Palmitoyl])APPPS-NH2; N-terminus assumed), the EC50 under setting [1] was 0.018 nM.

`CCCCCCCCCCCCCCCC(=O)N[C@@H](CCC(=O)NCCOCCOCC(=O)NCCCC[C@H](NC(=O)[C@H](CO)NC(=O)[C@H](CO)NC(=O)[C@@H]1CCCN1C(=O)CNC(=O)CNC(=O)[C@H](CC(N)=O)NC(=O)[C@H](CCCNC(=N)N)NC(=O)[C@H](CC(C)C)NC(=O)[C@H](Cc1c[nH]c2ccccc12)NC(=O)[C@H](CCC(=O)O)NC(=O)[C@@H](NC(=O)[C@H](Cc1ccccc1)NC(=O)[C@H](CC(C)C)NC(=O)[C@H](CCCNC(=N)N)NC(=O)[C@@H](NC(=O)[C@H](C)NC(=O)[C@H](CCC(=O)O)NC(=O)[C@H](CCC(=O)O)NC(=O)[C@H](CCC(=O)O)NC(=O)[C@H](CC(C)C)NC(=O)[C@H](CCC(N)=O)NC(=O)[C@H](CCCNC(=N)N)NC(=O)[C@H](CO)NC(=O)[C@H](CC(C)C)NC(=O)[C@H](CC(=O)O)NC(=O)[C@H](CO)NC(=O)[C@@H](NC(=O)[C@H](Cc1ccccc1)NC(=O)[C@@H](NC(=O)CNC(=O)[C@H](CCC(=O)O)NC(=O)CNC(=O)[C@@H](N)Cc1c[nH]cn1)[C@@H](C)O)[C@@H](C)O)C(C)C)[C@@H](C)CC)C(=O)N[C@@H](C)C(=O)N1CCC[C@H]1C(=O)N1CCC[C@H]1C(=O)N1CCC[C@H]1C(=O)N[C@@H](CO)C(N)=O)C(=O)O` [Example 7, N-ε^34-[2-(2-[2-[4-hexadecanoylamino-4(S)-carboxybutyrylamino]ethoxy]ethoxy)acetyl][Arg^12,27,Leu^14,Lys^34] Exendin-4(1-39)amide] (H-HGEGTFTSDLSRQLEEEAVRLFIEWLRNGGPSSK([AEEA-γGlu-Palmitoyl])APPPS-NH2) came in with an EC50 of 0.012 nM.

The record behind these values is patent US9012398B2, “Acylated exendin-4 compounds” (priority 2006, dated 2015).
